Measured values: patent publication US11839212B2, “Synergistic pesticidal compositions and methods for delivery of insecticidal active ingredients” (0903608 B.C. Ltd., priority 2018, dated 2023)
Like-named read-outs stand apart in the source and are kept apart here. One block for each compound: values may come before it.

Columns and labels:
[1] = test system: Trichoplusia ni; test: In-vitro insecticidal efficacy on artificial diet, spinosad (Entrust® SC) with aliphatic acids (Abbott efficacy, Colby synergy factor); format: in vivo; details: Entrust SC 0.034 ppm ([…] spinosad); aliphatic acid (salt) 500 ppm; after 5 days; Abbott-corrected
Protocol: An artificial diet suitable for Trichoplusia ni (cabbage looper caterpillar) was prepared from a commercially available general purpose lepidoptera artificial diet premix (General Purpose Lepidoptera Diet available from Frontier Scientific Services, Newark, DE) mixed in agar media and then heated to liquify the media. The liquid artificial diet media was then used to fill each well of a 96-well treatment plate with 200 uL of artificial diet media, which was allowed to solidify at room temperature and stored at approximately 4 C.
A 20 uL treatment sample of each treatment formulation was then placed on top of the solidified artificial diet media in each well of the 96 well plates and allowed to dry overnight. The following day, one neonate Trichoplusia ni (cabbage looper) larva (hatched from eggs obtained from the Natural Resource Canada insect research facility in Sault-Ste-Marie, ON, Canada) was added to each well of the plate, and their mortality rate was evaluated after 5 days, to determine the insecticidal efficacy of the Entrust® SC treatment alone, each exemplary unsaturated or saturated aliphatic acid (and salt) alone, and each combination of spinosad (as Entrust® SC) and unsaturated or saturated aliphatic acid (and salt). Each experiment contained 3 replicates.
(§1) While for SF<1, antagonism is present and for SF=1, the efficacy of the compounds is merely additive.

[2] = test system: Fusarium oxysporum; test: Synergistic Growth Inhibition Assay (MIC and FIC index, 96-well, resazurin); format: cell-based; details: Fusarium oxysporum, Compound B alone
Outline: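 Checkerboard dilutions of pesticidal active plus C6–C10 (or C11/C12) aliphatic acid in 96-well plates; growth scored by resazurin colour change, optionally visual.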

[3] = test system: Botrytis cinerea; test: as above; format: cell-based; details: Botrytis cinerea, 48 h, Compound B alone
Outline: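 Checkerboard microdilution of pesticidal active ingredient combined with C6–C10 (or C11/C12) aliphatic acid against Botrytis cinerea, with growth read by resazurin colour change plus visual check. FIC index = sum of each agent's concentration in the inhibiting well divided by its MIC alone; 1 denotes additivity.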

[4] = test system: Trichoplusia ni; test: In-planta insecticidal efficacy on sprayed cabbage plants, spinosad (Entrust® SC) with octanoic acid (Abbott efficacy, Colby synergy factor); format: in vivo; details: octanoic acid alone at 100 ppm; Abbott-corrected
Protocol: Green cabbage plants (Brassica oleracea var. capitate, Danish Ballhead cultivar) were grown from seed (available from West Coast Seeds, Delta, BC, Canada) in potting soil for 4-6 weeks in a pest-free indoor growing environment. At between 4-6 weeks of age, each cabbage plant was sprayed with 20 mL of treatment solution using a pressurized CO2 sprayer, and allowed to dry.
as §1

[5] = test system: Trichoplusia ni; test: In-planta insecticidal efficacy on sprayed cabbage plants, Pylon® (chlorfenapyr) with unsaturated aliphatic acids (Colby synergy factor); format: in vivo; details: 0.06 mg/mL aliphatic acid (salt)
Protocol: A stock solution was prepared for trans-2-hexenoic acid (available from Sigma-Aldrich, St. […] Green cabbage plants (Brassica oleracea var. capitate, Danish Ballhead cultivar) were grown from seed (available from West Coast Seeds, Delta, BC, Canada) in potting soil for 4 weeks in a pest-free indoor growing environment. At 4 weeks of age, each cabbage plant was sprayed with 10 mL of treatment solution using a hand pump sprayer bottle, and allowed to dry. […] The treated cabbage plants were then placed in nylon isolation tents and kept in an indoor growing environment and the larvae were left to feed on the plants. In one set of cabbage plants, the larvae were left to feed for 48 hours, and then the number of surviving larvae were observed and survival rates (%) were determined. In a second separate set of cabbage plants, the larvae were left to feed for 72 hours, and then the number of surviving larvae were observed and survival rates (%) were determined. Each experiment was repeated at least 3 times. […] In accordance with the Colby Formula, the expected efficacy, E (%), of a combination treatment of compounds A and B in concentrations a and b, respectively, can be determined by evaluating: […] The existence and extent of synergy present in a combination treatment can be determined according to the Colby Formula by evaluating a Synergy Factor, SF=(Observed efficacy)/(Expected efficacy).

[6] = test system: Sclerotinia sclerotiorum; test: Synergistic Growth Inhibition Assay (MIC and FIC index, 96-well, resazurin); format: cell-based; details: Sclerotinia sclerotiorum, […], Compound B alone, incubation 7 days
Outline: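 Checkerboard of pesticidal active ingredient combined with C6–C10 (or C11/C12) aliphatic acids in serial dilutions against Sclerotinia sclerotiorum. Growth scored by resazurin colour change plus visual inspection; FIC index is the sum of each agent's concentration divided by its MIC alone, with 1 indicating additivity.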

[7] = test system: Alternaria solani; test: as above; format: cell-based; details: Alternaria solani, […], read-out: MIC (B)
Outline: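 Checkerboard assay in 96-well plates: serial dilutions of active ingredient combined with C6–C10 aliphatic acid, fungus pre-grown to exponential phase in potato dextrose broth. MIC per agent alone and in combination; FIC = combination concentration/MIC alone, FIC index = sum of both agents' FICs (1 = additive).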

Structure (SMILES): C/C=C/C=C/C(=O)[O-].[K+] [(2E,4E)-2,4 hexadienoic acid, K-salt]
Observed Efficacy, W (%) [1]: 9.1%

MIC ([2]; 24 h, Table 7, 24 hour incubation, read-out: MIC(B)): 569 µg/mL | MIC ([2]; 24 h, Table 9, 24 hour incubation, read-out: MIC (B)): 569 µg/mL | MIC ([2]; Table 8, read-out: MIC (B)): 1140 µg/mL | MIC ([3]; Table 58, 48 hours incubation, read-out: MIC (B)): 625 µg/mL
Structure (SMILES): CCCCCCCC(=O)O [Octanoic acid, octanoic acid]
Observed Efficacy, W (%) [4]: 0%

Structure (SMILES): CCCCCCCC(=O)[O-].[K+] [Octanoic acid, K-salt]
Observed Efficacy, W (%) [1]: 0%

Structure (SMILES): CCCC=CCC(=O)O [3-heptanoic acid]
Observed Efficacy, W (%) [1]: 4.5%

Structure (SMILES): CC=CC=CC(=O)[O-].[K+] [2,4-hexadienoic acid, K-salt]
Observed Efficacy (%) ([5]; after 48 hours): 13% | Observed Efficacy (%) ([5]; after 72 hours): 0%

Structure (SMILES): CCCCCC(=O)O [Hexanoic acid, hexanoic acid]
MIC ([6]; read-out: MIC (B), Table 16): 39.1 µg/mL | MIC ([6]; read-out: MIC (B), Table 17): 39.1 µg/mL | MIC ([6]; read-out: MIC (B), Table 19): 78.1 µg/mL | MIC ([2]; 24 h, read-out: MIC(B), Table 7, 24 hour incubation): 145 µg/mL | MIC ([2]; read-out: MIC (B), Table 8): 290 µg/mL | MIC [7]: 156 µg/mL | MIC ([3]; read-out: MIC (B), Table 21, incubation 48 hours): 78.1 µg/mL | MIC ([3]; read-out: MIC (B), Table 22, incubation 48 hours): 78.1 µg/mL | MIC ([3]; read-out: MIC (B), Table 25, 48 hours incubation): 78.1 µg/mL
